# Reference: patent US20150366813A1, “LIQUID-FILLED IMMEDIATE RELEASE SOFT GELATIN CAPSULES” (Banner Life Sciences LLC, priority 2014, published 2015)
# Structures can show the parent of a compound that is named as a salt.
# Test: Particle size distribution of micronized and non-micronized dabigatran etexilate mesylate
# Format: physicochemical
# Details: DEM particle diameter distribution
# From the text: Examples of dabigatran etexilate mesylate particle size useful for the pharmaceutical composition described herein are shown in Table 9. The distribution of dabigatran etexilate mesylate particle sizes is set forth by the diameter distribution in either micronized or non-micronized samples. The dissolution of micronized and non-micronized dabigatran etexilate mesylate particles was studied using the matrix fill corresponding to DEM A as shown in Table 8 encapsulated in a hard gelatin capsule.
SMILES,"Particle size D(v, 0.1)","Particle size D(v, 0.5)","Particle size D(v, 0.9)"
"CCCCCCOC(=O)N=C(N)c1ccc(NCc2nc3cc(C(=O)N(CCC(=O)OCC)c4ccccn4)ccc3n2C)cc1 [Micronized, dabigatran etexilate mesylate]",1.5 μm,4.2 μm,10.5 μm
"CCCCCCOC(=O)N=C(N)c1ccc(NCc2nc3cc(C(=O)N(CCC(=O)OCC)c4ccccn4)ccc3n2C)cc1 [Non-micronized, dabigatran etexilate mesylate]",4.7 μm,20.8 μm,50.1 μm
